{"source": "patent US9809562B2", "about": "“NAT10 modulators for treating or preventing laminopathies, aging and cancer” (CAMBRIDGE ENTERPRISE LIMITED, priority 2014, dated 2017)", "key": {"tubulin in U2OS cells": {"tested_on": "tubulin in U2OS cells", "experiment": "Analysis of soluble or polymerised tubulin", "assay_type": "cell-based, human", "conditions": "5 μM Remodelin 16 hours", "procedure": "U2OS cells pre-treated with 5 μM Remodelin for 16 hours or with 10 μM nocodazole for 8 hours, were lysed in MT Stabilization Buffer (MSB) (85 mM PIPES [pH 6.9], 1 mM EGTA, 1 mM MgCl2, 2M glycerol, 0.5% Triton with 4 μg/ml Taxol). Lysates were kept at 4° C. for 2 minutes and then centrifuged for 10 minutes at 13,000 rpm. Supernatants, representing the soluble fraction of proteins, were transferred to new tubes, and Laemmli buffer was added. Pellets, representing the polymerized fraction of proteins, were washed once in MSB without Triton, and then resuspended in Laemmli buffer. Equal amounts of lysate were loaded on a gradient gel."}, "normal human fibroblasts": {"tested_on": "normal human fibroblasts", "experiment": "Nuclear shape of normal fibroblasts, with or without FTI", "assay_type": "cell-based", "text": "FIG. 11: Remodelin prevents FTI induced nuclear shape defects in non-progeric cells. A) Analysis of Lamin A/C processing after Remodelin or FTI treatment, showing that Remodelin is not a FTI. B) Representative pictures of Lamin A/C IF staining after the indicated treatments. Arrows indicate FTI induced misshapen nuclei in normal fibroblasts. Scale bar: 50 μm. C) Quantification of misshapen nuclei with the indicated cell lines and inhibitor treatments (means of three independent experiments±s.e.m. n>178). D) Representative pictures of DAPI staining showing effects of FTI and Remodelin on nuclear shape of U2OS cells. Scale bars: 20 μm.\nU2OS and SaOS-2 osteosarcoma cells, HeLa cervical cancer cells, A431 melanoma cells, NCI-SNU5 gastric cancer cells, MRC-5 lung fibroblast cells and Werner syndrome patient-derived SV40 fibroblast cells were grown in Dulbecco's modified Eagle medium (DMEM, Sigma-Aldrich) supplemented with 10% fetal bovine serum (BioSera), 2 mM L-glutamine, 100 U per ml penicillin, 100 μg ml^−1 streptomycin. […] Cells were analysed 48 to 72 hours after transfection.\nThe following KAT and KDAC inhibitors were used in the nuclear shape rescue screen, incubating cells with the molecules for 16 hours: trichostatin A (1 μM), sodium butyrate (5 mM), tubacin (10 μM), SAHA (5 μM), curcumin (10 μM), garcinol (50 μM), anacardic acid (1 μM), MB-3 (5 μM), 4-(4-chlorophenyl)-2-(2-cyclopentylidenehydrazinyl)thiazole (Compound 2) (50 μM), 4-(4-chlorophenyl)-2-(2-cyclopentylidene-1-(prop-2-yn-1-yl)hydrazinyl)thiazole (Compound 3) (50 μM) and cyclopentylidene-[4-(4-cyanophenyl)thiazol-2-yl)hydrazine (Compound 1) (Remodelin) (10 to 50 μM). […] Senescence was assessed after 8 days of Remodelin treatment when cells were at Population Doubling 12, and then after several weeks of Remodelin treatment, when cells reached Population Doubling 24 using the Senescence β-Galactosidase Staining Kit #9860 from Cell Signaling. […]"}, "siLMNA cells": {"tested_on": "siLMNA cells", "experiment": "Golgi apparatus integrity (anti-Giantin) in siLMNA cells", "assay_type": "cell-based, human", "text": "FIG. 13: Inhibiting NAT10 acetyltransferase activity modifies microtubule organisation to rescue nuclear shape defects. A) Microtubule network visualisation by inverted IF pictures of α-Tubulin. B) Nuclear shape visualisation after treating cells with microtubule or actin cytoskeleton disrupting agents. C) Visualisation of nuclear shape (DAPI) and Golgi (anti-Giantin) integrity in siLMNA cells. D) Fractionation of polymerised (P) and soluble (S) tubulin upon Remodelin or nocodazole (Nocod.) treatment. […] Right: quantification of cells with the indicated patterns (means of three independent experiments with n>103±s.e.m.). F) Laminopathic cells have enlarged, misshapen nuclei associated with disorganized chromatin structure. Upon Remodelin treatment, NAT10 acetyltransferase activity is inhibited, leading to disruption of microtubule anchorage at the centrosome and release of microtubule forces on the nuclear envelope. This release of mechanical stress on the nucleus contributes to nuclear shape rescue and global improvement of cellular fitness and chromatin organization. Scale bars: 20 μm.\nCells were washed with PBS and fixed for 20 minutes with 2% PFA in PBS. Cells were permeabilised for 5 minutes with PBS/0.2% Triton X-100, and blocked with PBS/0.2% Tween 20 (PBS-T) containing 5% BSA. […]"}}}
{"smiles": "N#Cc1ccc(-c2csc(NN=C3CCCC3)n2)cc1", "note": "[Compound 1, 4-(4-Cyanophenyl)-2-(2-cyclopentylidenehydrazinyl)thiazole]", "values": [{"measurement": "tubulin assembly into polymers", "setting": "tubulin in U2OS cells", "result": "did not affect Golgi apparatus integrity (FIG. 13C) or tubulin assembly into polymers"}, {"measurement": "nuclear shape of normal cells", "setting": "normal human fibroblasts; cells that do not express Progerin", "result": "did not induce nuclear shape defects in normal human fibroblasts"}, {"measurement": "FTI-induced nuclear shape defects", "setting": "normal human fibroblasts; normal fibroblasts co-treated with FTI", "result": "prevented FTI-induced nuclear shape defects"}, {"measurement": "Golgi apparatus integrity", "setting": "siLMNA cells", "result": "did not affect Golgi apparatus integrity"}]}
